Source: patent US20080188461A1, “Compositions and methods for detecting, preventing and treating seizures and seizure related disorders” (Regents of the University of Michigan, priority 2007, published 2008)

System: seizures
Assay: Reduction in the number of seizures in individuals with multiple daily seizures treated with rapamycin
Format: in vivo, human
Conditions: up to 7 mg/day rapamycin in combination with an anti-epileptic drug regimen, treatment 31-32 months
Description: In particular, 14 individuals experiencing multiple daily seizures (4 males with diagnosed TSC, 5 females with diagnosed TSC, 1 person with diagnosed Lennox-Gastaut Syndrome, and 4 females with diagnosed Lennox-Gastaut Syndrome) between the ages of 3-18 were administered rapamycin in combination with an anti-epileptic drug regimen. […] Each individual received between up to 7 mg/day of rapamycin. […] The duration of treatment was between 31 and 32 months.

Question: With CO[C@H]1C[C@@H]2CC[C@@H](C)[C@@](O)(O2)C(=O)C(=O)N2CCCC[C@H]2C(=O)O[C@H]([C@H](C)C[C@@H]2CC[C@@H](O)[C@H](OC)C2)CC(=O)[C@H](C)/C=C(\C)[C@@H](O)[C@@H](OC)C(=O)[C@H](C)C[C@H](C)/C=C/C=C/C=C/1C [rapamycin, Rapamycin] as the compound, how does the reduction in seizures (2 of the individuals diagnosed with TSC) read?
Answer: greater than 90%

Question: And the reduction in seizures (3 of the individuals diagnosed with Lennox-Gastaut Syndrome)?
Answer: greater than 90%

Question: What about the reduction in seizures (5 of the individuals diagnosed with Lennox-Gastaut Syndrome) of the same compound?
Answer: greater than 50%

Question: And the reduction in seizures (5 of the individuals diagnosed with TSC)?
Answer: greater than 50%
